Data published in US11578068B2, “Oxadiazole derivatives as Rho-Kinase Inhibitors” (Chiesi Farmaceutici S.p.A., priority 2017, dated 2023).

Columns and labels:
ROCK1 = ROCK1 (Homo sapiens, UniProt Q13464); assay: In vitro Rho kinase inhibitory activity assay (ADP-Glo), Rho kinase 1; format: biochemical; settings: Ki by Cheng-Prusoff from IC50; 10 μM ATP, 25° C., Myelin Basic Protein substrate; range of activity
Procedure: (§1) The effectiveness of compounds of the invention to inhibit Rho kinase activity can be determined in a 10 μl assay containing 40 mM Tris pH7.5, 20 mM MgCl2 0.1 mg/ml BSA, 50 μM DTT and 2.5 μM peptide substrate (Myelin Basic Protein) using an ADP-Glo kit (Promega). Compounds were dissolved in DMSO such that the final concentration of DMSO was 1% in the assay. All reactions/incubations are performed at 25° C. Compound (2 ul) and either Rho kinase 1 or 2 (4 μl) were mixed and incubated for 30 mins. Reactions were initiated by addition of ATP (4 μl) such that the final concentration of ATP in the assay was 10 μM. After a 1 hour incubation 10 μl of ADP-Glo Reagent was added and after a further 45 minute incubation 20 ul of Kinase Detection Buffer was added and the mixture incubated for a further 30 minutes. The luminescent signal was measured on a luminometer. […] Compounds were tested in dose-response format and the inhibition of kinase activity was calculated at each concentration of compound. To determine the IC50 (concentration of compound required to inhibit 50% of the enzyme activity) data were fit to a plot of % inhibition vs Log 10 compound concentration using a sigmoidal fit with a variable slope and fixing the maximum to 100% and the minimum to 0%. To determine the Ki values the Cheng-Prusoff equation was utilized (Ki=IC50/(1+[S]/Km)

ROCK2 = ROCK2 (Homo sapiens, UniProt O75116); assay: In vitro Rho kinase inhibitory activity assay (ADP-Glo), Rho kinase 2; format: biochemical; settings: Ki by Cheng-Prusoff from IC50; 10 μM ATP, 25° C., Myelin Basic Protein substrate; range of activity
ROCK2, sequence (O75116 whole entry): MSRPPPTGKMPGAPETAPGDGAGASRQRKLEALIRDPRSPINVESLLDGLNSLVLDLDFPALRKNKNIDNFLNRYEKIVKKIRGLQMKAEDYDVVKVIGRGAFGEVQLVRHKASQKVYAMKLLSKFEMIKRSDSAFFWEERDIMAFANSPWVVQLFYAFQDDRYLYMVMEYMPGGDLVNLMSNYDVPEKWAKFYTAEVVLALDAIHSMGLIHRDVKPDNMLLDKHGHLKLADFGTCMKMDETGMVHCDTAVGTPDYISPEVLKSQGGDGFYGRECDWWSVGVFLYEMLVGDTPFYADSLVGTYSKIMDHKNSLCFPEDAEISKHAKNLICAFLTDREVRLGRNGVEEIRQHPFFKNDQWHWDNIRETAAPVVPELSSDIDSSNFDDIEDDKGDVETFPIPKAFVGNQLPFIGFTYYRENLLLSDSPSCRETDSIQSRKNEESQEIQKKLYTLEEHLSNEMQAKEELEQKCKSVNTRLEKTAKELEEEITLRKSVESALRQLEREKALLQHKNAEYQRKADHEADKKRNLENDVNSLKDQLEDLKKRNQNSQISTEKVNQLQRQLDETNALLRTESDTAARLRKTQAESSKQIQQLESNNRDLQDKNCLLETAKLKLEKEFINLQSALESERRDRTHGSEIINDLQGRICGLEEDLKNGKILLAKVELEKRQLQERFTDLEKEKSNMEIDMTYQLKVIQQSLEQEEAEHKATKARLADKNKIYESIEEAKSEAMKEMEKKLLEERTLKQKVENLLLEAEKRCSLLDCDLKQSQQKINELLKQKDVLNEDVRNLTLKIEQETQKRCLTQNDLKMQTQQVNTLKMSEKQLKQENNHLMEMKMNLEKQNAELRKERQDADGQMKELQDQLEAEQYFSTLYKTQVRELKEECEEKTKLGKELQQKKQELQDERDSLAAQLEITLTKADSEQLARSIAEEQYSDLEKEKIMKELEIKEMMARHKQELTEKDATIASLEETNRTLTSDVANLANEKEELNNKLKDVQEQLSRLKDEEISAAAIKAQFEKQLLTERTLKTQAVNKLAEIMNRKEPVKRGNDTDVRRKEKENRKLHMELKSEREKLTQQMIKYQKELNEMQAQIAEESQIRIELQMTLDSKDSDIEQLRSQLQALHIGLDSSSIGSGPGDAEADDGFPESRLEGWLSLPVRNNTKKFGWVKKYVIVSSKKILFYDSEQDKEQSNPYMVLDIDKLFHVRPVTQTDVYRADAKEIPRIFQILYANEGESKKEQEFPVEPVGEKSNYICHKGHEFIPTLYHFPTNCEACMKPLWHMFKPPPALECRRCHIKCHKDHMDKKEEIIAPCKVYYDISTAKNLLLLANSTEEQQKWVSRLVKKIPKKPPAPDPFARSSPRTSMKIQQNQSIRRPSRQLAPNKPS
Procedure: as §1

ROCK1, sequence (Q13464 whole entry): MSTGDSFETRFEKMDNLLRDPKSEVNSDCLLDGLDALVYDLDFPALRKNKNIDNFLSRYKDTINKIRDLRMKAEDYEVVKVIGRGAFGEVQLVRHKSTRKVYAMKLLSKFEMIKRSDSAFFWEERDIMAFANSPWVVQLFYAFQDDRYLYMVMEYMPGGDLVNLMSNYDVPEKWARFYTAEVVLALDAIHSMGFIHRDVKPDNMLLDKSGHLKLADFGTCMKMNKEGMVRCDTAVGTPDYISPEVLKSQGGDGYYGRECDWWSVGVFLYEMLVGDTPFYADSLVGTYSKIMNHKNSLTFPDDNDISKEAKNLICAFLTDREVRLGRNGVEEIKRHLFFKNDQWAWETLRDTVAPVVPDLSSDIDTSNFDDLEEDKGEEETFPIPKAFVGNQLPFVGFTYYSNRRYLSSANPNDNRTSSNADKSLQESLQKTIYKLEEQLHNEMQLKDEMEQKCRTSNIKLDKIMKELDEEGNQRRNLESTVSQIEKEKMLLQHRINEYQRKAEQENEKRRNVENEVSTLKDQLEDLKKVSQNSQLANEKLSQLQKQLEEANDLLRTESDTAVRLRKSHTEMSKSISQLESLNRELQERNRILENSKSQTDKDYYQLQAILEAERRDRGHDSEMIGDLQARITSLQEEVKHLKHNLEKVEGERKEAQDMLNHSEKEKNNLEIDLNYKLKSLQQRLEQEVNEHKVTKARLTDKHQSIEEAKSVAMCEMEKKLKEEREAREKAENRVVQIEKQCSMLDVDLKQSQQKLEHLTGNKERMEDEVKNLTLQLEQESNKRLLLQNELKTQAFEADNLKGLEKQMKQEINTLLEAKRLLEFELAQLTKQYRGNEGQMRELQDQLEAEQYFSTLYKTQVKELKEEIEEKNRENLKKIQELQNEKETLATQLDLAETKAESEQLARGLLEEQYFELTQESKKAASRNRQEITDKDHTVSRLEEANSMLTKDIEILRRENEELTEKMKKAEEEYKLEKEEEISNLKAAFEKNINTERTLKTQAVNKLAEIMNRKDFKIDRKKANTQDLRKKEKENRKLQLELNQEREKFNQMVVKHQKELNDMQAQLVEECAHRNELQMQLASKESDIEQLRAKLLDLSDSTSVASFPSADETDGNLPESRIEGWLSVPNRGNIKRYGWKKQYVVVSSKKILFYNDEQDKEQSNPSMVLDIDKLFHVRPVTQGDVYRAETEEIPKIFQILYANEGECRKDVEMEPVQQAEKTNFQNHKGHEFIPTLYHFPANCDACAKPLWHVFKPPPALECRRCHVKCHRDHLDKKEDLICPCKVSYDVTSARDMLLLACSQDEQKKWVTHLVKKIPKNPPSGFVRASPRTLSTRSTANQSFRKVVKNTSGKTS

Compound	Ki (ROCK1) [nM]	Ki (ROCK2) [nM]
N[C@@H](Cc1ccc(Oc2ccnc3[nH]ccc23)cc1)c1nc(-c2ccccc2)no1 [Example 7, (S)-2-(4-((1H-pyrrolo[2,3-b]pyridin-4-yl)oxy)phenyl)-1-(3-phenyl-1,2,4-oxadiazol-5-yl)ethanamine]	> 50	> 50
Cc1c[nH]c2nccc(Oc3ccc(C[C@H](N)c4nc(-c5cccnc5)no4)cc3F)c12 [Example 5, (S)-2-(3-fluoro-4-((3-methyl-1H-pyrrolo[2,3-b]pyridin-4-yl)oxy)phenyl)-1-(3-(pyridin-3-yl)-1,2,4-oxadiazol-5-yl)ethanamine]	5 to 50	5 to 50
Cc1noc([C@@H](N)Cc2ccc(Oc3ccnc4[nH]cc(C)c34)c(F)c2)n1 [Example 3, (S)-2-(3-fluoro-4-((3-methyl-1H-pyrrolo[2,3-b]pyridin-4-yl)oxy)phenyl)-1-(3-methyl-1,2,4-oxadiazol-5-yl)ethanamine]	5 to 50	5 to 50
Cc1c[nH]c2nccc(Oc3ccc(C[C@H](N)c4nc(-c5ccccc5)no4)cc3F)c12 [Example 1, (S)-2-(3-fluoro-4((3-methyl-1H-pyrrolo[2,3-b]pyridin-4-yl)oxy)phenyl)-1-(3-phenyl-1,2,4-oxadiazol-5-yl)ethanamine]	5 to 50	5 to 50
Cc1c[nH]c2nccc(Oc3ccc(C[C@H](N)c4nc(CCCN(C)C)no4)cc3F)c12 [Example 6, (S)-3-(5-(1-amino-2-(3-fluoro-4-((3-methyl-1H-pyrrolo[2,3-b]pyridin-4-yl)oxy)phenyl)ethyl)-1,2,4-oxadiazol-3-yl)-N,N-dimethylpropan-1-amine]	5 to 50	5 to 50
COCCc1noc([C@@H](N)Cc2ccc(Oc3ccnc4[nH]cc(C)c34)c(F)c2)n1 [Example 2, (S)-2-(3-fluoro-4-((3-methyl-1H-pyrrolo[2,3-b]pyridin-4-yl)oxy)phenyl)-1-(3-(2-methoxyethyl)-1,2,4-oxadiazol-5-yl)ethanamine]	5 to 50	5 to 50
Cc1c[nH]c2nccc(Oc3ccc(C[C@H](N)c4nc(CCc5ccccc5)no4)cc3F)c12 [Example 4, (S)-2-(3-fluoro-4-((3-methyl-1H-pyrrolo[2,3-b]pyridin-4-yl)oxy)phenyl)-1-(3-phenethyl-1,2,4-oxadiazol-5-yl)ethanamine]	< 5	< 5
Cc1c[nH]c2nccc(Oc3ccc(C[C@H](N)c4nnc(Cc5ccccc5)o4)cc3F)c12 [Example 9, (S)-1-(5-benzyl-1,3,4-oxadiazol-2-yl)-2-(3-fluoro-4-((3-methyl-1H-pyrrolo [2,3-b]pyridin-4-yl)oxy)phenyl)ethanamine]	< 5	< 5
Cc1c[nH]c2nccc(Oc3ccc(CC(CN)c4nc(CCc5ccccc5)no4)cc3F)c12 (stereo not drawn) [Example 8, 3-(3-fluoro-4-((3-methyl-1H-pyrrolo[2,3-b]pyridin-4-yl)oxy)phenyl)-2-(3-phenethyl-1,2,4-oxadiazol-5-yl)propan-1-amine]	< 5	< 5
